Reference: patent US20040086553A1, “Foods and beverages for whitening and orally administered whitening agents” (The Nisshin OilliO, Ltd., priority 2000, published 2004)
Like-named read-outs stand apart in the source and are kept apart here.

Tests used:
[1] = test system: B-16 melanoma cells; test: Evaluation of melanin production-inhibitory function (degree of whiteness of cultured cells); assay type: cell-based; details: for melanin production-inhibitory function relative to that observed for the positive control/standard: compared with 450 ppm of vitamin C-magnesium phosphate; as to Evaluation of Melanin Production-Inhibition (degree of whiteness of cells): key: ++: The degree of whiteness is higher than that observed for the positive control; +: The degree of whiteness is almost identical to that of the positive control; ±: The degree of whiteness is not higher than that observed for the positive control, but higher than that observed for control; −: The degree of whiteness is almost identical to that observed for the control
Excerpt: The melanin production-inhibitory function of the 5-membered ring-containing triterpenes incorporated into the foods or beverages and orally administered whitening agents of the present invention can be determined by a test method, which makes use of cultured melanocytes. The term “melanocyte(s)” used herein means cells having an ability of producing melanin and when cultivating these cells in the usual manner, the cells are blackened due to the accumulation of melanin pigment thus produced. Contrary to this, if a substance having such a melanin production-inhibitory function is incorporated into this cultivation system, the melanin production is suppressed and the skin is relatively whitened. The melanin production-inhibitory function can likewise be evaluated on the basis of this degree of relative whitening.
A culture medium (2 mL/well) was dispensed to a 6-well plate, a predetermined amount of B-16 melanoma cells was inoculated into the culture medium in each well and the cells were cultured at 37° C. and 5% CO2 by allowing the culture medium to stand. On the next day, a solution of test sample (each 5-membered ring-containing triterpene to be evaluated) having a predetermined concentration was added to and mixed with the culture medium and the cultivation was continued. On the 5th day from the initiation of the cultivation, the culture medium was exchanged and the test sample solution was again added to each well. On the next day, the culture medium was removed from each well to thus recover the cells, followed by washing the cells with PBS (phosphate-buffered physiological saline) and evaluation of the desired function based on the degree of whiteness of the cells. In this connection, the melanin production-inhibitory effect was evaluated by comparing the resulting degree of whiteness with that observed when 450 ppm of vitamin C-magnesium phosphate having a known effect was added instead of the test sample solution (positive control) and that observed when any test sample was not added (control) according to the following criteria.
The evaluation criteria for the degree of whiteness of cells are as follows: […]

[2] = test system: deposition of melanin pigment on the skin induced by the UV light irradiation; test: Animal test for the confirmation of whitening effect (UV-induced skin pigmentation, test feed); assay type: in vivo, Brown guinea pigs; details: 4 weeks; for Evaluation Results CI: number of 7 animals ranked Conspicuous Imp.; for Evaluation Results MI: number of 7 animals ranked Medium Imp.; for Evaluation Results NC: number of 7 animals ranked No Change; for Evaluation Results SI: number of 7 animals ranked Slight Imp.
Excerpt: More specifically, the whitening effect can be evaluated by removing a half of the hair on the back of each brown guinea pig, keeping these animals over 2 weeks while irradiating the hair-removed area with a UV lamp, dividing these guinea pigs into groups in such a manner that there is not any difference in the degree of the melanin pigmentation induced by the UN light irradiation, allowing the animals in each group to freely take a test food comprising a feed having a low vitamin C content to which a variety of triterpenes have been added and keeping these animals over additional 4 weeks to evaluate the degree of skin pigmentation while comparing the same with those observed for a control group and for a positive control group.
Brown guinea pigs (5-week-old male animals) were preliminarily kept for one week using a commercially available feed (CG-7 available from Nippon Kurea Company), a half of the hair on the back was removed and the hair-removed portion on the back was irradiated with light rays emitted from a UV lamp of 1.2 mW for 5 minutes on the 1st day and then with light rays emitted from a UV lamp of 1.0 mW for 5 minutes on the 2nd and 3rd days. Subsequently, these animals were kept over 2 weeks using a feed having a low vitamin C content (200.0 mg/kg feed), these guinea pigs were divided into 12 groups (comprising 7 animals each) in such a manner that there was not observed any difference in the degree of deposition of melanin pigment on the skin induced by the UV light irradiation between groups and then the animals were allowed to freely ingest each test feed comprising the feed having a low vitamin C content to which each triterpene had been added in an amount specified in the following Table 2. In this respect, however, the vitamin C-deficient feed per se was supplied to the control group and a vitamin C-supplemented feed was supplied to the positive control group. After 4 weeks from the supply of the test feed, the degree of the pigmentation of the skin was evaluated according to the following criteria.

[3] = Concentration 2 ppm, rank vs 450 ppm vitamin C-magnesium phosphate
[4] = Concentration 4 ppm, rank vs 450 ppm vitamin C-magnesium phosphate
[5] = Concentration 6 ppm, rank vs 450 ppm vitamin C-magnesium phosphate
[6] = Concentration 8 ppm, rank vs 450 ppm vitamin C-magnesium phosphate
[7] = Concentration 10 ppm, rank vs 450 ppm vitamin C-magnesium phosphate
[8] = Concentration 15 ppm, rank vs 450 ppm vitamin C-magnesium phosphate
[9] = Concentration 25 ppm, rank vs 450 ppm vitamin C-magnesium phosphate
[10] = Concentration 50 ppm, rank vs 450 ppm vitamin C-magnesium phosphate
[11] = 500.0 mg/kg feed, free ingestion
[12] = positive control group, 2500.0 mg/kg feed

| Compound | Evaluation of Melanin Production-Inhibition (degree of whiteness of cells) [1, 3] | Evaluation of Melanin Production-Inhibition (degree of whiteness of cells) [1, 5] | Evaluation of Melanin Production-Inhibition (degree of whiteness of cells) [1, 7] | melanin production-inhibitory function relative to that observed for the positive control/standard [1] | Evaluation of Melanin Production-Inhibition (degree of whiteness of cells) [1, 9] | Evaluation of Melanin Production-Inhibition (degree of whiteness of cells) [1, 10] | other results |
| --- | --- | --- | --- | --- | --- | --- | --- |
| 2,3-O-di-Stearoyl-Maslinic Acid Ethyl Ester [Compound of Synthetic Example 4] | ± | + | ++ | about 75 times |  |  | Evaluation of Melanin Production-Inhibition (degree of whiteness of cells) [1, 4]: ±; Evaluation of Melanin Production-Inhibition (degree of whiteness of cells) [1, 6]: ++; Evaluation of Melanin Production-Inhibition (degree of whiteness of cells) [1, 8]: ++ |
| 2,3-O-di-Triethylsilyl-Maslinic Acid Triethylsilyl Ester [Compound of Synthetic Example 3] | − | ± | + | about 40 times | + | + |  |
| C=C(C)[C@@H]1CC[C@]2(CO)CC[C@]3(C)[C@H](CC[C@@H]4[C@@]5(C)CC[C@H](O)C(C)(C)[C@@H]5CC[C@]43C)[C@@H]12 [Betulin] | − | ± | ± | about 40 times |  |  | Evaluation Results CI [2, 11]: 1; Evaluation Results MI [2, 11]: 3; Evaluation Results NC [2, 11]: 1; Evaluation Results SI [2, 11]: 2 |
| C=C(C)[C@@H]1CC[C@]2(C(=O)O)CC[C@]3(C)[C@H](CC[C@@H]4[C@@]5(C)CC[C@H](O)C(C)(C)[C@@H]5CC[C@]43C)[C@@H]12 [Betulinic acid] | − | ± | + | about 20 times |  |  | Evaluation Results CI [2, 11]: 2; Evaluation Results MI [2, 11]: 4; Evaluation Results NC [2, 11]: 0; Evaluation Results SI [2, 11]: 1 |
| CCOC(=O)[C@]12CCC(C)(C)C[C@H]1C1=CC[C@@H]3[C@@]4(C)C[C@@H](O)[C@H](O)C(C)(C)[C@@H]4CC[C@@]3(C)[C@]1(C)CC2 [Compound of Synthetic Example 1, Ethyl Maslinate] | ± | ++ | ++ | about 110 times |  |  | Evaluation of Melanin Production-Inhibition (degree of whiteness of cells) [1, 4]: +; Evaluation of Melanin Production-Inhibition (degree of whiteness of cells) [1, 6]: ++; Evaluation Results CI [2, 11]: 2; Evaluation Results MI [2, 11]: 3; Evaluation Results NC [2, 11]: 1; Evaluation Results SI [2, 11]: 1 |
| CC(=O)OCC12CCC(C)(C)CC1C1=CCC3C4(C)CCC(OC(C)=O)C(C)(C)C4CCC3(C)C1(C)CC2 (stereo not shown) [Compound of Synthetic Example 5, 3,28-O-di-Acetyl-Erythrodiol] | − | ± | ± | about 20 times | + | + |  |
| CCOC(=O)[C@]12CC[C@@H](C)[C@H](C)[C@H]1C1=CC[C@@H]3[C@@]4(C)CC[C@H](O)C(C)(C)[C@@H]4CC[C@@]3(C)[C@]1(C)CC2 [Compound of Synthetic Example 6, Ursolic Acid Ethyl Ester] | ± | ++ | ++ | about 110 times |  |  | Evaluation of Melanin Production-Inhibition (degree of whiteness of cells) [1, 4]: +; Evaluation of Melanin Production-Inhibition (degree of whiteness of cells) [1, 6]: ++ |
| CC(=O)OC[C@]12CC[C@@H](C)[C@H](C)[C@H]1C1=CC[C@@H]3[C@@]4(C)CC[C@H](OC(C)=O)C(C)(C)[C@@H]4CC[C@@]3(C)[C@]1(C)CC2 [Compound of Synthetic Example 7, 3,28-O-di-Acetyl-Uvaol] | − | − | ± | about 20 times | + | + |  |
| C=C(C)[C@@H]1CC[C@]2(C(=O)OCC)CC[C@]3(C)[C@H](CC[C@@H]4[C@@]5(C)CC[C@H](O)C(C)(C)[C@@H]5CC[C@]43C)[C@@H]12 [Compound of Synthetic Example 8, Betulinic Acid Ethyl Ester] | − | ± | ± | about 20 times | + | + |  |
| C=C(C)[C@@H]1CC[C@]2(COC(C)=O)CC[C@]3(C)[C@H](CC[C@@H]4[C@@]5(C)CC[C@H](OC(C)=O)C(C)(C)[C@@H]5CC[C@]43C)[C@@H]12 [Compound of Synthetic Example 9, 3,28-O-di-Acetyl-Betulin] | − | − | ± | about 10 times | ± | + |  |
| O=c1cc(CO)occ1O [Kojic acid, reference compound] |  |  | − |  | − | ± | Evaluation of Melanin Production-Inhibition (degree of whiteness of cells) [1, 8]: −; Evaluation of Melanin Production-Inhibition (degree of whiteness of cells) ([1]; Concentration 100 ppm, rank vs 450 ppm vitamin C-magnesium phosphate): ±; Evaluation of Melanin Production-Inhibition (degree of whiteness of cells) ([1]; Concentration 200 ppm, rank vs 450 ppm vitamin C-magnesium phosphate): +; Evaluation of Melanin Production-Inhibition (degree of whiteness of cells) ([1]; Concentration 300 ppm, rank vs 450 ppm vitamin C-magnesium phosphate): ++; Evaluation of Melanin Production-Inhibition (degree of whiteness of cells) ([1]; Concentration 450 ppm, rank vs 450 ppm vitamin C-magnesium phosphate): ++ |
| O=C1O[C@H]([C@@H](O)CO)C(O)=C1O [L-Ascorbic acid, reference compound] |  |  |  |  |  |  | Evaluation Results CI [2, 12]: 0; Evaluation Results MI [2, 12]: 1; Evaluation Results NC [2, 12]: 2; Evaluation Results SI [2, 12]: 4 |
| CC1(C)CC[C@]2(C(=O)O)CC[C@]3(C)C(=CC[C@@H]4[C@@]5(C)C[C@@H](O)[C@H](O)C(C)(C)[C@@H]5CC[C@]43C)[C@@H]2C1 [Purified maslinic acid 3, maslinic acid] |  |  |  |  |  |  | Evaluation of Melanin Production-Inhibition (degree of whiteness of cells) [1]: ± and + and ++ |
